Entries after “also recorded” stand apart in the source; their conditions may differ. Like-named read-outs stand apart in the source and are kept apart here.
How the values were obtained:
[1] = biological target: T1, recombinant SjTGR (Schistosoma japonicum, UniProt B5THG7); assay: Inhibition of TrxR activity of recombinant SjTGR (DTNB assay); format: biochemical; conditions: 50 nM SjTGR, 1 mM NADPH, 15 min preincubation, DTNB reduction
T1 sequence (B5THG7 1-596): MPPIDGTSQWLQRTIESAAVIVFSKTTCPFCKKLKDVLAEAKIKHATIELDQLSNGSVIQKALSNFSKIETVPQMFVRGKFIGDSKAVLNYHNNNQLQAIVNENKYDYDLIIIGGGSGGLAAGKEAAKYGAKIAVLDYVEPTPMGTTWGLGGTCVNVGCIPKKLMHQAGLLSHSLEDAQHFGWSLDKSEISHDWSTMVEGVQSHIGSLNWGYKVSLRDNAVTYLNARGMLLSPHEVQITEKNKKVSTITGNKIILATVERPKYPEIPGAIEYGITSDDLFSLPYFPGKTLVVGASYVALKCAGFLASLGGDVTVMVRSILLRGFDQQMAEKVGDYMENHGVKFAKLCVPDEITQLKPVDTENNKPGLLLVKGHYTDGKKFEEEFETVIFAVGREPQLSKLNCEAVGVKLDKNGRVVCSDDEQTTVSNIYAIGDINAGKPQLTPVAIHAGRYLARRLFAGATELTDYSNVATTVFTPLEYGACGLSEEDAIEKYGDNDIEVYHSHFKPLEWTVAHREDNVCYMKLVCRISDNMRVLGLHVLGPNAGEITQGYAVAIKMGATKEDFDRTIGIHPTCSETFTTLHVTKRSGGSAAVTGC
Method in brief: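 SjTGR (50 nM) preincubated 15 min at room temperature with 1 mM NADPH and oxadiazole-2-oxides (2-20 μM). Reaction started with potassium phosphate pH 7.4, 10 mM EDTA, 100 μM NADPH, 3 mM DTNB; A412 increase followed over first 2 min, triplicates.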

[2] = Cytotoxicity assay on Hela cells (MTT); format: cell-based; conditions: human
Description: Cytotoxicity assays were performed using Hela cells. Cells in the exponential growth phase were collected by centrifugation and a concentration of 4–5 × 10^4/mL was created. 100 μL of the cell suspension was added to each well of a 96-well plate and cultured overnight at 37 °C in a humid atmosphere with 5 % CO2. Oxadiazole-2-oxides (at 10, 20, 40, 80 and 160 μM) were added. Each concentration was assayed in triplicate, and control wells (no cells and no drugs) were assayed at the same time. The “no cell” control wells only contained RPMI 1640 medium, MTT, DMSO, and oxadiazole-2-oxides. The “no drug” control wells contained the Hela cells, RPMI 1640 medium, MTT and DMSO. The cells were cultured for 48 h at 37 °C in a humid atmosphere with 5 % CO2. Then, 20 μL of 5 mg/mL MTT was added to each well and the culture conditions were maintained for 4 h. After this point, the medium was removed and 150 μL DMSO was added into each well to dissolve any crystallisation. The value of absorbance at 570 nm of each well was measured (at 570 nm) with a microplate reader to assess the toxic effect of the oxadiazole-2-oxides on the vertebrate cells.

[3] = system: juvenile S. japonicum in mice; assay: Treatment of infected mice at juvenile worm stage; format: in vivo, Schistosoma japonicum (ICR mice); conditions: 10 mg/kg i.p. daily for 5 days from day 7 post-infection; for Number of eggs per gram of liver (Mean ± SD) / Number of worms (Mean ± SD): sacrificed day 42; for Egg reduction rate / Worm reduction rate: versus control, 10 mg/kg
Description: (§1) The abdominal skin of each mouse (ICR, female, 22–24 g) was exposed to 20 S. japonica cercariae (as described above). The mice were intraperitoneally injected with 10 mg/kg oxadiazole-2-oxides daily for 5 days, beginning either 7 or 35 days post-infection. Control mice were treated with 10 mg/kg of the carrier medium. All mice were sacrificed 42 days post-infection. The worm burden of each mouse was confirmed by counting the number of worms observed from a portal vein perfusion. The mouse livers were digested overnight with 5 % potassium hydroxyl solution at 37 °C and the eggs in the liver tissue were counted under an inverted phase contrast microscope. The worm and egg reduction rates were calculated using the following formulas: Wormreductionrate%=meannumberofadultwormspermouseincontrolgroup−meannumberofadultwormspermouseinexperimentalgroup/meannumberofadultwormspermouseincontrolgroup. Eggreductionrate%=meannumberofeggspermouseincontrolgroup−meannumberofeggspermouseinexperimentalgroup/meannumberofeggspermouseincontrolgroup.

[4] = system: adult S. japonicum in mice; assay: Treatment of infected mice at adult worm stage; format: in vivo, Schistosoma japonicum (ICR mice); conditions: for Reduction in the female worms: mice treated at adult worm stage (data not shown); for Number of eggs per gram of liver (Mean ± SD) / Number of worms (Mean ± SD) / Egg reduction rate / Worm reduction rate: mice, 10 mg/kg i.p. daily for 5 days from day 35 post-infection; for Number of eggs per gram of liver (Mean ± SD) / Number of worms (Mean ± SD): sacrificed day 42; for Egg reduction rate / Worm reduction rate: versus control
Description: as §1

[5] = system: S. mansoni; conditions: compared with 10 μM, 72 h data; cited from earlier work
[6] = system: adult S. japonica; assay: Activity against adult S. japonica in vitro with and without NO scavenger carboxy-PTIO; format: cell-based, Schistosoma japonicum; set-up: dose or concentration left out as unconfirmed; conditions: adult worms in vitro
Description: To assess the importance of NO production, the potassium salt of carboxy-PTIO, a NO scavenger, was dissolved in water and 100 mM was incubated with freshly perfused adult S. japonica in the presence or absence of […] oxadiazole-2-oxides. The worms’ mobility, tegumental alterations and parasite survival were monitored using an inverted microscope. The experiment was done in triplicate.
Fig. 4 Activity of oxadiazole-2-oxides against adult S. japonica in vitro, with and without carboxy-PTIO. Carboxy-PTIO was incubated with freshly perfused adult S. japonica at 100 mM in the presence and absence of […] oxadiazole-2-oxides. The worms’ mobility, tegumental alterations and survival rates were monitored under an inverted microscope. The experiment was done in triplicate. The percentage of adult worms that survived are shown (mean ± SD; n = 3)

Compound: COc1ccc(-c2no[n+]([O-])c2CO)cc1 [Compound 4a]
- IC50 ([1]; read-out: IC50 of SjTGR): 2.7 µM
- viability at 72 h, 80 µM [2]: 91%
- Number of eggs per gram of liver (Mean ± SD) [3]: 4,258.9 ± 1,910.0 (P > 0.05^**)
- Number of worms (Mean ± SD) [3]: 1.3 ± 0.8 (P > 0.05^**)
- Egg reduction rate [3]: 47.0 (P < 0.05^*) %
- Worm reduction rate [3]: 87.7 (P < 0.01^*) %
- Reduction in the female worms [4]: 36.8%
- Number of eggs per gram of liver (Mean ± SD) [4]: 7730.8 ± 1457.8 (P < 0.05^**)
- Number of worms (Mean ± SD) [4]: 4.0 ± 2.5 (P > 0.05^**)
- Egg reduction rate ([4]; 10 mg/kg): 3.8 (P > 0.05^*) %
- Worm reduction rate ([4]; 10 mg/kg): 66.7 (P < 0.01^*) %

Compound: Cc1ccc(-c2no[n+]([O-])c2CO)cc1 [Compound 4b]
- IC50 ([1]; read-out: IC50 of SjTGR): 1.7 µM
- viability at 72 h, 80 µM [2]: 96%
- Number of eggs per gram of liver (Mean ± SD) [3]: 8,669.2 ± 2,255.8 (P < 0.05^**)
- Number of worms (Mean ± SD) [3]: 1.8 ± 1.5 (P > 0.05^**)
- Worm reduction rate [3]: 83.1 (P < 0.01^*) %
- Number of eggs per gram of liver (Mean ± SD) [4]: 7007.8 ± 2420.2 (P < 0.05^**)
- Number of worms (Mean ± SD) [4]: 9.0 ± 3.8 (P < 0.05^**)
- Egg reduction rate [4]: 12.8 (P > 0.05^*) %
- Worm reduction rate [4]: 25.0 (P > 0.05^*) %

Compound: COc1ccc(-c2no[n+]([O-])c2C#N)cc1 [Compound 7a]
- IC50 ([1]; IC50 of SjTGR): 12.2 µM
- Mortality in adult worms of S. mansoni [5]: 100.0%

Compound: Cc1ccc(-c2no[n+]([O-])c2C#N)cc1 [Compound 7b]
- IC50 ([1]; IC50 of SjTGR): 14.2 µM
- Mortality in adult worms of S. mansoni [5]: 70.0%

Compound: N#Cc1c(-c2ccc(Br)cc2)no[n+]1[O-] [Compound 7c]
- IC50 ([1]; IC50 of SjTGR): 3.7 µM
- viability at 72 h, 80 µM [2]: 66%
- Number of eggs per gram of liver (Mean ± SD) [3]: 3,859.4 ± 3,749.4 (P > 0.05^**)
- Number of worms (Mean ± SD) [3]: 1.4 ± 0.8 (P > 0.05^**)
- Egg reduction rate [3]: 52.0 ( P > 0.05^*) %
- Worm reduction rate [3]: 87.1 (P < 0.01^*) %
- Number of eggs per gram of liver (Mean ± SD) [4]: 7213.0 ± 2658.0 (P < 0.05^**)
- Number of worms (Mean ± SD) [4]: 12.0 ± 3.9 (P < 0.05^**)
- Egg reduction rate [4]: 10.2 (P > 0.05^*) %
- Killing activity with versus without carboxy-PTIO [6]: no differences in the killing activities
- Mortality in adult worms of S. mansoni [5]: 100.0%

Compound: N#Cc1c(-c2ccc(O)cc2)no[n+]1[O-] [Compound 8]
- IC50 ([1]; IC50 of SjTGR): 37.4 µM
- Mortality in adult worms of S. mansoni [5]: 100.0%

Compound: N#Cc1c(-c2ccc(OCCBr)cc2)no[n+]1[O-] [Compound 12]
- IC50 ([1]; read-out: IC50 of SjTGR): 21.7 µM

Compound: N#Cc1c(-c2ccc(OCCCBr)cc2)no[n+]1[O-] [Compound 13]
- IC50 ([1]; read-out: IC50 of SjTGR): 1.6 µM
- viability at 72 h, 80 µM [2]: 80%
- Number of eggs per gram of liver (Mean ± SD) [3]: 3,808.9 ± 1,288.9 (P > 0.05^**)
- Number of worms (Mean ± SD) [3]: 1.7 ± 0.7 (P > 0.05^**)
- Egg reduction rate [3]: 52.6 (P < 0.05^*) %
- Worm reduction rate [3]: 84.6 (P < 0.01^*) %
- Number of eggs per gram of liver (Mean ± SD) [4]: 8201.4 ± 2066.0 (P < 0.05^**)
- Number of worms (Mean ± SD) [4]: 8.6 ± 2.4 (P < 0.05^**)
- Worm reduction rate [4]: 28.3 (P < 0.05^*) %

Compound: N#Cc1c(-c2ccc(OC/C=C/CBr)cc2)no[n+]1[O-] [Compound 16]
- IC50 ([1]; read-out: IC50 of SjTGR): 0.5 µM
- viability at 72 h, 80 µM [2]: 89%
- Number of eggs per gram of liver (Mean ± SD) [3]: 4,054.5 ± 1,322.1 (P > 0.05^**)
- Number of worms (Mean ± SD) [3]: 1.0 ± 0.5 (P > 0.05^**)
- Egg reduction rate [3]: 49.5 (P < 0.01^*) %
- Worm reduction rate [3]: 90.8 (P < 0.01^*) %
- Reduction in the female worms [4]: 44.7%
- Number of eggs per gram of liver (Mean ± SD) [4]: 6424.1 ± 1193.4 (P < 0.05^**)
- Number of worms (Mean ± SD) [4]: 3.7 ± 1.4 (P > 0.05^**)
- Egg reduction rate ([4]; 10 mg/kg): 20.0 (P > 0.05^*) %
- Worm reduction rate ([4]; 10 mg/kg): 69.4 (P < 0.01^*) %
- Killing activity with versus without carboxy-PTIO [6]: no differences in the killing activities

Compound: N#Cc1c(-c2ccc(OCc3ccccc3)cc2)no[n+]1[O-] [Compound 19]
- IC50 of SjTGR [1]: did not inhibit; also recorded: neither did they inhibit the SjTGR activity
- IC50 ([1]; read-out: IC50 of SjTGR): > 20 µM

Compound: C#CCOc1ccc(-c2no[n+]([O-])c2C#N)cc1 [Compound 20]
- IC50 ([1]; read-out: IC50 of SjTGR): 3.3 µM
- viability at 72 h, 80 µM [2]: 87%
- Number of eggs per gram of liver (Mean ± SD) [3]: 7,767.5 ± 2,676.6 (P < 0.05^**)
- Number of worms (Mean ± SD) [3]: 3.0 ± 0.9 (P < 0.05^**)
- Egg reduction rate [3]: 3.3 (P > 0.05^*) %
- Worm reduction rate [3]: 69.5 (P < 0.01^*) %
- Number of eggs per gram of liver (Mean ± SD) [4]: 10094.7 ± 1691.0 (P < 0.05^**)
- Number of worms (Mean ± SD) [4]: 4.7 ± 1.1 (P > 0.05^**)
- Worm reduction rate [4]: 61.1 (P < 0.01^*) %

Compound: N#Cc1c(-c2ccc(COc3ccccc3)cc2)no[n+]1[O-] [Compound 23]
- IC50 of SjTGR [1]: did not inhibit
- IC50 ([1]; read-out: IC50 of SjTGR): > 20 µM

Compound: N#Cc1c(-c2ccc(COc3ccc(C=O)cc3)cc2)no[n+]1[O-] [Compound 26]
- IC50 of SjTGR [1]: did not inhibit; also recorded: neither did they inhibit the SjTGR activity
- IC50 ([1]; read-out: IC50 of SjTGR): > 20 µM

Compound: Cc1ccc2cccc(OCc3ccc(-c4no[n+]([O-])c4C#N)cc3)c2n1 [Compound 28]
- IC50 of SjTGR [1]: did not inhibit
- IC50 ([1]; read-out: IC50 of SjTGR): > 20 µM

— publication PMC4721062, “Oxadiazole-2-oxides may have other functional targets, in addition to SjTGR, through which they cause mortality in Schistosoma japonicum” (Parasites & Vectors, 2016)
